According to PubChem BioAssay AID248 (DTP/NCI, 2004):
“And” between values parts separate entries of the source, which are not always exact repeats. Identical values can stand only once. Toxic doses and inconclusive results are not listed. No stated cut-off is given here; in the data, active means T/C of 150% or more; inactive means T/C below 125%.

Test system: L1210 leukemia ip in BDF1 mice, survival T/C
Assay: NCI In Vivo Anticancer Drug Screen. Data for tumor model L1210 Leukemia (intraperitoneal) in B6D2F1 (BDF1) mice
Conditions: endpoint: mean survival time, higher = longer survival
How it was run: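 Tumor was transplanted into mice, which were then dosed with test compound or vehicle alone. Survival was recorded for each group, and the treated figure was expressed relative to the control figure.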

[1] = dose: 75.0 mg/kg/injection, schedule: Q01DX001 (ip), vehicle: carboxymethylcellulose (CMC)
[2] = dose: 100.0 mg/kg/injection, schedule: Q04DX003 (ip), vehicle: Klucel (hydroxypropylcellulose) (HPC)
[3] = dose: 200.0 mg/kg/injection, schedule: Q04DX003 (ip), vehicle: Klucel (hydroxypropylcellulose) (HPC)
[4] = dose: 400.0 mg/kg/injection, schedule: Q04DX003 (ip), vehicle: Klucel (hydroxypropylcellulose) (HPC)
[5] = dose: 100.0 mg/kg/injection, schedule: Q01DX001 (ip), vehicle: saline
[6] = dose: 200.0 mg/kg/injection, schedule: Q01DX001 (ip), vehicle: saline
[7] = dose: 400.0 mg/kg/injection, schedule: Q01DX001 (ip), vehicle: saline
[8] = dose: 25.0 mg/kg/injection, schedule: Q01DX009 (ip), vehicle: saline
[9] = dose: 50.0 mg/kg/injection, schedule: Q01DX009 (ip), vehicle: saline
[10] = dose: 100.0 mg/kg/injection, schedule: Q01DX009 (ip), vehicle: saline
[11] = dose: 100.0 mg/kg/injection, schedule: Q04DX003 (ip), vehicle: saline
[12] = dose: 100.0 mg/kg/injection, schedule: Q01DX001 (ip), vehicle: carboxymethylcellulose (CMC)
[13] = dose: 200.0 mg/kg/injection, schedule: Q01DX001 (ip), vehicle: carboxymethylcellulose (CMC)
[14] = dose: 400.0 mg/kg/injection, schedule: Q01DX001 (ip), vehicle: carboxymethylcellulose (CMC)
[15] = dose: 200.0 mg/kg/injection, schedule: Q01DX009 (ip), vehicle: saline
[16] = dose: 400.0 mg/kg/injection, schedule: Q01DX009 (ip), vehicle: saline

Measured: T/C

O=C1CCCN1C(=O)c1ccccc1
inactive: dose: 100.0 mg/kg/injection, schedule: Q01DX009 (ip), vehicle: saline with Tween-80 101 % of control | dose: 200.0 mg/kg/injection, schedule: Q01DX009 (ip), vehicle: saline with Tween-80 95 % of control | dose: 400.0 mg/kg/injection, schedule: Q01DX009 (ip), vehicle: saline with Tween-80 95 % of control

CN(N=O)C(=O)Nc1ccc(F)cc1
inactive: dose: 6.25 mg/kg/injection, schedule: Q01DX Z (ip), vehicle: carboxymethylcellulose (CMC) 110 % of control | dose: 12.5 mg/kg/injection, schedule: Q01DX Z (ip), vehicle: carboxymethylcellulose (CMC) 103 % of control | dose: 25.0 mg/kg/injection, schedule: Q01DX Z (ip), vehicle: carboxymethylcellulose (CMC) 111 % of control | [1] 120 % of control

c1ccc(C[Si](c2ccccc2)c2ccccc2)cc1
inactive: [2] 107 % of control | [3] 100 % of control | [4] 98 % of control

CCCCCCCCCCCCCCCCn1cnc2ncnc(Cl)c21
inactive: dose: 12.5 mg/kg/injection, schedule: Q01DX005 (ip), vehicle: other 100 % of control | dose: 25.0 mg/kg/injection, schedule: Q01DX005 (ip), vehicle: other 102 % of control | dose: 50.0 mg/kg/injection, schedule: Q01DX005 (ip), vehicle: other 98 % of control | dose: 100.0 mg/kg/injection, schedule: Q01DX005 (ip), vehicle: other 105 % of control | dose: 200.0 mg/kg/injection, schedule: Q01DX005 (ip), vehicle: other 100 % of control

CCOC(=O)c1c(C)c(-c2ccccc2F)nc2ccccc12
inactive: [5] 103 % of control | [6] 94 % of control

C[CH2][Ge]1([CH2]C)[CH2]CC2(C[CH2]1)NC(=O)NC2=O
inactive: dose: 100.0 mg/kg/injection, schedule: Q04DX002 (ip), vehicle: saline 103 % of control | dose: 200.0 mg/kg/injection, schedule: Q04DX002 (ip), vehicle: saline 100 % of control | dose: 400.0 mg/kg/injection, schedule: Q04DX002 (ip), vehicle: saline 96 % of control

O=C(/C=C\c1ccccc1)N1CCc2ccccc2C1
inactive: dose: 75.0 mg/kg/injection, schedule: Q04DX003 (ip), vehicle: saline 100 % of control | dose: 300.0 mg/kg/injection, schedule: Q04DX003 (ip), vehicle: saline 101 % of control

CC1=C(Sc2ccccc2)c2ccccc2C1
inactive: [5] 86 % of control | [6] 91 % of control | [7] 91 % of control

C[N+](C)(C)CCCCCC[N+](C)(C)C
inactive: [8] 102 % of control | dose: 25.0 mg/kg/injection, schedule: Q04DX003 (ip), vehicle: saline 108 % of control | [9] 104 % of control | dose: 50.0 mg/kg/injection, schedule: Q04DX003 (ip), vehicle: saline 97 % of control | [10] 96 % of control | [11] 94 % of control and 89 % of control

O=C(OC1C2C=CC1C1C(=O)NC21)c1ccccc1 (centres undefined)
inactive: [1] 97 % of control | dose: 150.0 mg/kg/injection, schedule: Q01DX001 (ip), vehicle: carboxymethylcellulose (CMC) 102 % of control | dose: 300.0 mg/kg/injection, schedule: Q01DX001 (ip), vehicle: carboxymethylcellulose (CMC) 113 % of control

Cc1cc(N(CCCl)CCCl)ccc1C=Nc1cc(Cl)c(O)c(Cl)c1
inactive: [12] 96 % of control | [13] 96 % of control | [14] 105 % of control

N#Cc1cn(C2OC(CO)C(O)C2O)c2ncnc([Se]Cc3ccc([N+](=O)[O-])cc3)c12 (centres undefined)
inactive: dose: 3.12 mg/kg/injection, schedule: Q01DX005 (ip), vehicle: saline 109 % of control | dose: 6.25 mg/kg/injection, schedule: Q01DX005 (ip), vehicle: saline 106 % of control | dose: 12.5 mg/kg/injection, schedule: Q01DX005 (ip), vehicle: saline 102 % of control

C[N+]1(C)CCC[N+](C)(C)CC1
inactive: dose: 55.0 mg/kg/injection, schedule: Q01DX Z (ip), vehicle: saline 95 % of control | dose: 83.0 mg/kg/injection, schedule: Q01DX Z (ip), vehicle: saline 98 % of control | dose: 125.0 mg/kg/injection, schedule: Q01DX Z (ip), vehicle: saline 103 % of control

CCN(CC)CCN(C)CCN(CC)CC
inactive: [9] 91 % of control | [10] 102 % of control | [11] 93 % of control | [15] 101 % of control | dose: 200.0 mg/kg/injection, schedule: Q04DX003 (ip), vehicle: saline 98 % of control

O=C(/C=C/c1ccccc1)NC(=S)Nc1ccc(C(=O)O)cc1
inactive: dose: 100.0 mg/kg/injection, schedule: Q01DX009 (ip), vehicle: Klucel (hydroxypropylcellulose) (HPC) 92 % of control | [2] 101 % of control | dose: 200.0 mg/kg/injection, schedule: Q01DX009 (ip), vehicle: Klucel (hydroxypropylcellulose) (HPC) 101 % of control | [3] 100 % of control | dose: 400.0 mg/kg/injection, schedule: Q01DX009 (ip), vehicle: Klucel (hydroxypropylcellulose) (HPC) 94 % of control | [4] 108 % of control

CCCCNc1ccc([N+](=O)[O-])cc1[N+](=O)[O-]
inactive: dose: 50.0 mg/kg/injection, schedule: Q01DX009 (ip), vehicle: other 104 % of control | dose: 100.0 mg/kg/injection, schedule: Q01DX009 (ip), vehicle: other 93 % of control | dose: 100.0 mg/kg/injection, schedule: Q04DX003 (ip), vehicle: other 104 % of control | dose: 200.0 mg/kg/injection, schedule: Q01DX009 (ip), vehicle: other 104 % of control | dose: 200.0 mg/kg/injection, schedule: Q04DX003 (ip), vehicle: other 96 % of control

CCN=C(N)c1ccc(NC(=O)c2ccc(C(=O)Nc3ccc(C(N)=NCC)cc3)cc2)cc1
inactive: dose: 1.0 mg/kg/injection, schedule: Q01DX Z (ip), vehicle: other 115 % of control | dose: 2.0 mg/kg/injection, schedule: Q01DX Z (ip), vehicle: other 91 % of control | dose: 8.0 mg/kg/injection, schedule: Q01DX Z (ip), vehicle: carboxymethylcellulose (CMC) 100 % of control

COc1ccccc1CN1CCCN(Cc2ccccc2OC)C1c1c(O)ccc2ccccc12
inactive: [12] 91 % of control | [13] 91 % of control | [14] 91 % of control

CC(C)COC1CCCC(Oc2ccccc2)O1 (centres undefined)
inactive: dose: 55.0 mg/kg/injection, schedule: Q01DX Z (ip), vehicle: methylcellulose (MC) 92 % of control | dose: 83.0 mg/kg/injection, schedule: Q01DX Z (ip), vehicle: methylcellulose (MC) 100 % of control | dose: 125.0 mg/kg/injection, schedule: Q01DX Z (ip), vehicle: methylcellulose (MC) 91 % of control

Cl[Si](Cl)(Cl)CCc1ccccc1
inactive: [8] 104 % of control | [9] 101 % of control | [10] 90 % of control

CC1CCC2C(C)C3C(CC4C5CC=C6CC(OC7OC(COC8OC(CO)C(OC9OC(C)C(O)C(O)C9O)C(O)C8O)C(O)C(O)C7O)CCC6(C)C5CCC43C)N2C1 (centres undefined)
inactive: dose: 50.0 mg/kg/injection, schedule: Q04DX002 (ip), vehicle: Klucel (hydroxypropylcellulose) (HPC) 105 % of control | dose: 100.0 mg/kg/injection, schedule: Q04DX002 (ip), vehicle: Klucel (hydroxypropylcellulose) (HPC) 102 % of control

NNC(=O)CCO
inactive: [5] 103 % of control | [10] 89 % of control | [6] 105 % of control | [15] 100 % of control | [7] 94 % of control | [16] 96 % of control

NC(Cc1c[nH]c2ccccc12)C(=O)O (centres undefined)
inactive: dose: 100.0 mg/kg/injection, schedule: Q01DX001 (ip), vehicle: saline with Tween-80 95 % of control | [10] 100 % of control | dose: 200.0 mg/kg/injection, schedule: Q01DX001 (ip), vehicle: saline with Tween-80 98 % of control | [15] 94 % of control | dose: 300.0 mg/kg/injection, schedule: Q01DX001 (ip), vehicle: saline with Tween-80 92 % of control | [16] 94 % of control | dose: 800.0 mg/kg/injection, schedule: Q01DX009 (ip), vehicle: saline 94 % of control

Nc1nc2c(ncn2C(/C=N/Nc2ccccc2)OC(/C=N/Nc2ccccc2)CO)c(=O)[nH]1 (centres undefined)
inactive: dose: 100.0 mg/kg/injection, schedule: Q01DX001 (ip), vehicle: other 98 % of control | dose: 200.0 mg/kg/injection, schedule: Q01DX001 (ip), vehicle: other 106 % of control | dose: 400.0 mg/kg/injection, schedule: Q01DX001 (ip), vehicle: other 108 % of control
